The values below come from patent US20040224958A1, “Pyridopyrimidinone derivatives for treatment of neurodegenerative disease” (priority 2000, published 2004).

One assay concerns the target cdk4/D (Homo sapiens, UniProt P11802). In words: Cyclin-Dependent Kinase 4 (cdk4) Assay. Type of assay: biochemical. To be noted: read-out: cdk4/D IC50.
A further assay deals with Cdk5/p25 (Homo sapiens, UniProt Q00535). In words: Cyclin-Dependent Kinase 5 High Throughput Screening (cdk5-HTS) Assay. In kind it is biochemical. The conditions noted are these: high throughput screen. Put shortly: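 IC50 determined from 33P incorporation into GST-RbCOOH captured on glutathione plates and read by scintillation counting. Reaction: 1.0 μg/mL Cdk5/p25, 20 μM [γ33P]ATP, pH 7.4 Tris buffer with MgCl2 and DTT, 30 min at room temperature, stopped with EDTA.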

A further assay deals with cdk2/cyclinE (Homo sapiens, UniProt P24941). In words: Cyclin-Dependent Kinase Assay cdk2/cyclinE. To be noted: cdk2/E IC50.
For the next assay, the target named is cdk2/cyclinA (Homo sapiens, UniProt P24941). As to the kind of experiment: Cyclin-Dependent Kinase Assay cdk2/cyclinA. The conditions noted are these: cdk2/A IC50.
For a further assay, the target named is cdc2/cyclinB (Homo sapiens, UniProt P06493). As to the kind of experiment: Cyclin-Dependent Kinase Assay cdc2/cyclinB.
cdc2/cyclinB, sequence (P06493 whole entry): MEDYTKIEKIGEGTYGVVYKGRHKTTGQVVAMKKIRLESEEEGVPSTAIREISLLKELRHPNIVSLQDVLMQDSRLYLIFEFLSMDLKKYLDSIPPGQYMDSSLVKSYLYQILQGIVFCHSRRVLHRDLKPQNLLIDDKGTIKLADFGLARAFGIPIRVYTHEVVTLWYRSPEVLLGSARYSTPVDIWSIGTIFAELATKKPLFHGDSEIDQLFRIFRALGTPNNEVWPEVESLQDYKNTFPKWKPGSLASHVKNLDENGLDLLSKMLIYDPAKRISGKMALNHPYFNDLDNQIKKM
cdc2/cyclinB, sequence (P14635 whole entry, further chain): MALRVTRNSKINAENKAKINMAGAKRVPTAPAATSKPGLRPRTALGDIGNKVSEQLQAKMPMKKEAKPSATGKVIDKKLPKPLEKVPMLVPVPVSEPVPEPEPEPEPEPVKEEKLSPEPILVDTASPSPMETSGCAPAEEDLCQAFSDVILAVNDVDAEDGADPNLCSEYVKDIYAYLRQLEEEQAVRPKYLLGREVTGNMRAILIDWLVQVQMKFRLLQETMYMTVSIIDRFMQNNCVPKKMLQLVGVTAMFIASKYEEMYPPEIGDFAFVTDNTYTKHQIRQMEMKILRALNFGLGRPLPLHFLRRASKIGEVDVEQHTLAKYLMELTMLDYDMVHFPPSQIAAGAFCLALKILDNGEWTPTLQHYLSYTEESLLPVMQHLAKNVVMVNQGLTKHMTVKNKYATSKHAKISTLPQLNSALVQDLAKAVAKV

SMILES strings stand for the structures.

cdk4/D, sequence (P11802 whole entry): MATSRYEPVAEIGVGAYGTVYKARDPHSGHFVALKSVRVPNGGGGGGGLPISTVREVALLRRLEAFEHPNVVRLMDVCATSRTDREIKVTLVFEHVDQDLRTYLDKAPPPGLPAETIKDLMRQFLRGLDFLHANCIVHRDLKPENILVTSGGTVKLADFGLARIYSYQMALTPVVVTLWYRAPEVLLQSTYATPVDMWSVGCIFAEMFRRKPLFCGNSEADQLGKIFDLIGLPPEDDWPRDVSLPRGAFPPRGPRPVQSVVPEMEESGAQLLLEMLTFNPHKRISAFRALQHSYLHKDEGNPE
cdk4/D, sequence (P24385 whole entry, further chain): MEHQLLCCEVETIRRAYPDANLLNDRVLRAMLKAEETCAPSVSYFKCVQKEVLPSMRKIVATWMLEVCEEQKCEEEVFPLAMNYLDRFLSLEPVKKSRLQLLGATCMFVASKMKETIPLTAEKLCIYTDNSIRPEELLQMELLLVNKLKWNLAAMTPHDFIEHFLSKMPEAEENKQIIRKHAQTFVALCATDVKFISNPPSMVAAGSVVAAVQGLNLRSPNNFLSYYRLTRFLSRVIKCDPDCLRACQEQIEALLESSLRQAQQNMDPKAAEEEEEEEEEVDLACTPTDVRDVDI
Protocol for cdk2/cyclinE: Cyclin-Dependent Kinase Assays (cdk2/cyclinE, cdk2/cyclinA, cdc2/cyclinB)
All components except the ATP were added to the wells, and the plate was placed on a plate mixer for 2 minutes. The reaction was begun by addition of [^32P]ATP, and the plate was incubated at 25° C. for 15 minutes. The reaction was terminated by addition of 0.1 mL of 20% TCA. The plate was kept at 4° C. for at least 1 hour to allow the substrate to precipitate. The wells were then washed five times with 0.2 mL of 10% TCA and ^32p incorporation determined with a beta plate counter (Wallac Inc., Gaithersburg, Md.).

On to `O=c1ccc2cnc(Nc3ccc4[nH]nnc4c3)nc2n1C1CCCC1` [Example 537, 2-(1H-Benzotriazol-5-ylamino)-8-cyclopentyl-8H-pyrido[2,3-d]pyrimidin-7-one], for which the IC50 at cdk4/D was 42 nM; against Cdk5/p25, 12.3 nM; against cdk2/cyclinE, 8.5 nM; on cdk2/cyclinA, 25.5 nM; against cdc2/cyclinB it was 49.5 nM.
In the case of `O=c1ccc2cnc(Nc3ccc(O)cc3F)nc2n1C1CCCC1` [Example 538, 8-Cyclopentyl-2-(2-fluoro-4-hydroxy-phenylamino)-8H-pyrido[2,3-d]pyrimidin-7-one], the IC50 was found to be 338 nM on cdk4/D; 145 nM against Cdk5/p25; 72.7 nM against cdk2/cyclinE; 320 nM against cdk2/cyclinA; 425 nM on cdc2/cyclinB.
For `O=c1ccc2cnc(Nc3ccc(O)c(Cl)c3)nc2n1C1CCCC1` [Example 539, 2-(3-Chloro-4-hydroxy-phenylamino)-8-cyclopentyl-8H-pyrido[2,3-d]pyrimidin-7-one], in that order: 23.5 nM, 23.5 nM, 14.3 nM, 33.5 nM and 28 nM.
Take `O=c1ccc2cnc(Nc3cc(Cl)c(O)c(Cl)c3)nc2n1C1CCCC1` [Example 540, 8-Cyclopentyl-2-(3,5-dichloro-4-hydroxy-phenylamino)-8H-pyrido[2,3-d]pyrimidin-7-one]: the IC50 worked out at 710 nM at cdk4/D; 200 nM at Cdk5/p25; 61.7 nM on cdk2/cyclinE; 170 nM at cdk2/cyclinA; 310 nM against cdc2/cyclinB.
`COc1ccc(Nc2ncc3ccc(=O)n(C4CCCC4)c3n2)cc1OC` [Example 541, 8-Cyclopentyl-2-(3,4-dimethoxy-phenylamino)-8H-pyrido[2,3-d]pyrimidin-7-one]: the IC50 on cdk4/D amounted to 110 nM; on Cdk5/p25 it was 13.5 nM; against cdk2/cyclinE, 22.3 nM; against cdk2/cyclinA, 41.5 nM; at cdc2/cyclinB, 59.5 nM.
With `COc1cc(Nc2ncc3ccc(=O)n(C4CCCC4)c3n2)cc(C(F)(F)F)c1` [Example 543, 8-Cyclopentyl-2-(3-methoxy-5-trifluoromethyl-phenylamino)-8H-pyrido[2,3-d]pyrimidin-7-one], the IC50 on cdk4/D worked out at 280 nM; on Cdk5/p25, 210 nM; against cdk2/cyclinE, 500 nM; against cdk2/cyclinA, 1700 nM; on cdc2/cyclinB, 550 nM.
Turning to `Cc1cc(C)cc(Nc2ncc3ccc(=O)n(C4CCCC4)c3n2)c1` [Example 544, 8-Cyclopentyl-2-(3,5-dimethyl-phenylamino)-8H-pyrido[2,3-d]pyrimidin-7-one], the IC50 on cdk4/D is 120 nM; against Cdk5/p25, 23 nM; against cdk2/cyclinE it was 82 nM; against cdk2/cyclinA, 350 nM; against cdc2/cyclinB it was 85 nM.
The corresponding values for `Cc1ccc(Nc2ncc3ccc(=O)n(C4CCCC4)c3n2)cc1Cl` [Example 545, 2-(3-Chloro-4-methyl-phenylamino)-8-cyclopentyl-8H-pyrido[2,3-d]pyrimidin-7-one] are 55 nM, 25 nM, 140 nM, 310 nM and 180 nM.
Turning to `O=c1ccc2cnc(Nc3ccc(Cl)c(C(F)(F)F)c3)nc2n1C1CCCC1` [Example 546, 2-(4-Chloro-3-trifluoromethyl-phenylamino)-8-cyclopentyl-8H-pyrido[2,3-d]pyrimidin-7-one], the IC50 on cdk4/D was determined as 1390 nM; against Cdk5/p25, 64 nM; at cdk2/cyclinE, 415 nM; on cdk2/cyclinA it was 1340 nM; against cdc2/cyclinB it was 555 nM.
For `NS(=O)(=O)c1cccc(Nc2ncc3ccc(=O)n(C4CCCC4)c3n2)c1` [Example 547, 3-(8-Cyclopentyl-7-oxo-7,8-dihydro-pyrido[2,3-d]pyrimidin-2-ylamino)-benzenesulfonamide], in that order: 54 nM, 66 nM, 110 nM, 590 nM and 300 nM.
For `O=c1ccc2cnc(Nc3cc(F)cc(F)c3)nc2n1C1CCCC1` [Example 548, 8-Cyclopentyl-2-(3,5-difluoro-phenylamino)-8H-pyrido[2,3-d]pyrimidin-7-one], in that order: 180 nM, 99 nM, 180 nM, 200 nM and 290 nM.
Take `Cc1ccc(Nc2ncc3ccc(=O)n(C4CCCC4)c3n2)cc1C` [Example 549, 8-Cyclopentyl-2-(3,4-dimethyl-phenylamino)-8H-pyrido[2,3-d]pyrimidin-7-one]: the IC50 amounted to 70 nM at cdk4/D; 59 nM on Cdk5/p25; 290 nM at cdk2/cyclinE; 190 nM against cdk2/cyclinA; 200 nM at cdc2/cyclinB.
For `O=c1ccc2cnc(Nc3ccc(O)c(CN4CCOCC4)c3)nc2n1C1CCCC1` [Example 550, 8-Cyclopentyl-2-(4-hydroxy-3-morpholin-4-ylmethyl-phenylamino)-8H-pyrido[2,3-d]pyrimidin-7-one], in that order: 310 nM, 190 nM, 110 nM, 200 nM and 510 nM.
As for `O=c1ccc2cnc(Nc3ccc(O)c([N+](=O)[O-])c3)nc2n1C1CCCC1` [Example 551, 8-Cyclopentyl-2-(4-hydroxy-3-nitro-phenylamino)-8H-pyrido[2,3-d]pyrimidin-7-one], the IC50 on cdk4/D was 290 nM; on Cdk5/p25 it was 55 nM; against cdk2/cyclinE, 16 nM; against cdk2/cyclinA it was 14 nM; on cdc2/cyclinB it was 36 nM.
The corresponding values for `CC1Nc2ccc(Nc3ncc4ccc(=O)n(C5CCCC5)c4n3)cc2C1C` (stereo not shown) [Example 552, 8-Cyclopentyl-2-(2,3-dimethyl-2,3-dihydro-1H-indol-5-ylamino)-8H-pyrido[2,3-d]pyrimidin-7-one] are 180 nM, 54 nM, 150 nM, 210 nM and 48 nM.
`O=c1[nH]c2cc(Nc3ncc4ccc(=O)n(C5CCCC5)c4n3)ccc2o1` [Example 554, 8-Cyclopentyl-2-(2-oxo-2,3-dihydro-benzoxazol-5-ylamino)-8H-pyrido[2,3-d]pyrimidin-7-one]: the IC50 on cdk4/D was found to be 230 nM; on Cdk5/p25, 32 nM; against cdk2/cyclinE, 152 nM; against cdk2/cyclinA, 148 nM; against cdc2/cyclinB, 169 nM.
For `Cc1ccc(Nc2ncc3ccc(=O)n(C4CCCC4)c3n2)cc1NS(C)(=O)=O` [Example 555, N-[5-(8-Cyclopentyl-7-oxo-7,8-dihydro-pyrido[2,3-d]pyrimidin-2-ylamino)-2-methyl-phenyl]-methanesulfonamide], in that order: 69 nM, 60 nM, 99 nM, 160 nM and 220 nM.
For `O=C1CSc2ccc(Nc3ncc4ccc(=O)n(C5CCCC5)c4n3)cc2N1` [Example 556, 8-Cyclopentyl-2-(3-oxo-3,4-dihydro-2H-1,4-benzothiazin-6-ylamino)-8H-pyrido[2,3-d]pyrimidin-7-one], the IC50 was 19 nM at cdk4/D; 9 nM against Cdk5/p25; 40 nM at cdk2/cyclinE; 16 nM on cdk2/cyclinA; 30 nM on cdc2/cyclinB.
The corresponding values for `CC(=O)Nc1cc(Nc2ncc3ccc(=O)n(C4CCCC4)c3n2)ccc1C` [Example 558, N-[5-(8-Cyclopentyl-7-oxo-7,8-dihydro-pyrido[2,3-d]pyrimidin-2-ylamino)-2-methyl-phenyl]-acetamide] are 30 nM, 220 nM, 280 nM, 340 nM and 510 nM.
The corresponding values for `Cc1cc(Nc2ncc3ccc(=O)n(C4CCCC4)c3n2)cc(C)c1O` [Example 559, 8-Cyclopentyl-2-(4-hydroxy-3,5-dimethyl-phenylamino)-8H-pyrido[2,3-d]pyrimidin-7-one] are 270 nM, 94 nM, 91 nM, 87 nM and 82 nM.
For `O=C(O)c1cc(Nc2ncc3ccc(=O)n(C4CCCC4)c3n2)ccc1O` [Example 560, 5-(8-Cyclopentyl-7-oxo-7,8-dihydro-pyrido[2,3-d]pyrimidin-2-ylamino)-2-hydroxy-benzoic acid], in that order: 910 nM, 490 nM, 370 nM, 220 nM and 450 nM.
Take `Cc1cc(Nc2ncc3ccc(=O)n(C4CCCC4)c3n2)ccc1Br` [Example 562, 2-(4-Bromo-3-methyl-phenylamino)-8-cyclopentyl-8H-pyrido[2,3-d]pyrimidin-7-one]: the IC50 on cdk4/D worked out at 160 nM; at Cdk5/p25, 50 nM; against cdk2/cyclinE it was 140 nM; at cdk2/cyclinA it was 56 nM; against cdc2/cyclinB, 47 nM.
For `O=c1ccc2cnc(Nc3ccc4[nH]ccc4c3)nc2n1CC1CC1` [Example 563, 8-Cyclopropylmethyl-2-(1H-indol-5-ylamino)-8H-pyrido[2,3-d]pyrimidin-7-one], the IC50 at cdk4/D turned out to be 87 nM; on Cdk5/p25 it was 86.5 nM; against cdk2/cyclinE it was 103 nM; against cdk2/cyclinA, 320 nM; on cdc2/cyclinB, 156 nM.
